Measured values taken from patent US10517919B2, “Selective Nox-1 inhibitor peptides and uses thereof” (UNIVERSITE DE BORDEAUX, priority 2013, dated 2019).

Legend:
NADPH oxidase [1] = test: NADPH oxidase activity in non-tumor bearing skin and UVB-induced tumors after 29 weeks; assay type: in vivo, SKH-1 mice; conditions: compared with vehicle treated mice, after 29 weeks of treatment
Experimental: Mice were sacrificed after 29 weeks of treatment. Non-tumor bearing skin and tumors were harvested from irradiated mice treated with peptide A or the vehicle. NADPH oxidase activity was measured as RLU/μg of proteins in non-tumor bearing skin and UVB-induced tumors. Relative inhibition of Nox activity in non-tumor bearing skin and tumors was evaluated following arbitrary setting the Nox activity in non-tumor bearing skin and tumors taken from vehicle treated-mice to 100%. Results were then expressed as the average percentage of vehicle-treated mice.
The activity of NADPH oxidase was reduced 70% in non-tumor bearing skin and 54% in tumors isolated from mice treated with peptide A compared with vehicle treated mice (FIG. 7).

[2] = test system: primary human keratinocytes; test: ROS level with CM-H2DCF-DA probes in keratinocytes; assay type: cell-based; conditions: 10 or 50 μM, 24 h
Experimental: (§1) FIGS. 2A and 2B: show the relative ROS level as measured in primary human keratinocytes and HT29 (human colon adenocarcinoma cell line) treated with 10 or 50 μM of peptide inhibitor for 24 h using the CM-H2DCF-DA probes. Cells were treated with 10 μM of the peptides A (SEQ ID NO: 41), B (SEQ ID NO: 42), and C (SEQ ID NO: 43), and the ROS level was measured 24 h post-treatment. ROS level was normalized to non-treated cells (NTC) (*P<0.05).
(§2) ROS level in primary human keratinocytes treated with 10 or 50 μM of peptides A, B, and C for 24 h were assayed using the CM-H2DCF-DA probes (FIG. 2A).

[3] = molecular target: T1, Nox1 activity in mouse skin (Mus musculus, UniProt Q8CJ00); test: NADPH oxidase activity in mouse skin after topical treatment; assay type: in vivo, SKH-1 mice; conditions: 3 and 12 mg/kg
T1 construct: from tissue; host or cells: skin biopsies of SKH-1 mice
T1 sequence (Q8CJ00 1-444): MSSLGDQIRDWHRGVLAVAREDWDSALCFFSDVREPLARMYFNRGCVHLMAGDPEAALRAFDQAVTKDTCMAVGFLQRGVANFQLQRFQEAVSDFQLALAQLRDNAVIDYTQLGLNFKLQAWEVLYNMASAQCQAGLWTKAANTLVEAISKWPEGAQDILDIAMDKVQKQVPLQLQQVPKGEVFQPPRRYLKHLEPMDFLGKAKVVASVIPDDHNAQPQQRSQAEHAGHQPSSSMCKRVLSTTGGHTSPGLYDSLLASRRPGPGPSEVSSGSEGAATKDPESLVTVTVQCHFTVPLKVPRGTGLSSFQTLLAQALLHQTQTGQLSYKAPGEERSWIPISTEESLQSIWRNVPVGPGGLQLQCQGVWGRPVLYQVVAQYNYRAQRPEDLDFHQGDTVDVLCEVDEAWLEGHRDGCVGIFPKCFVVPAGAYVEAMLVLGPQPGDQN
Experimental: (§3) FIGS. 5A and 5B: show effect of peptide A on Nox1 activity in mouse skin. SKH-1 mice were treated topically with different doses: 0.4, 3 and 12 mg/kg (3 mice per dose) of Nox1 inhibitor peptide A. Skin biopsies were harvested 2 h, 24 h, 48 h and 72 h post-treatment and the NADPH oxidase activity was measured (RLU/μg of proteins). Results was normalized to the non-treated (NT) mice and expressed as % of inhibition of Nox activity. (B) Mice were treated topically with 3 and 12 mg/kg of peptide A (2 mice per dose). 10 min after treatment, mice were exposed to UVB (150 mJ/cm^2). Skin biopsies were harvested 2 h, 24 h. At 46 h after first treatment, mice were treated again with the same concentration of peptide A and exposed to UVB 10 min later. Skin biopsies were then harvested at 2 h, 24 h (i.e. 48 and 72 h after first treatment, respectively). The NADPH oxidase activity was measured (RLU/μg of proteins) and was normalized to the non-treated (NT) and non-irradiated mice.
(§4) To examine the effect of peptide A on Nox1 activity in mouse skin, SKH-1 mice were treated topically with different doses of peptide A (FIG. 5A). […] The effect of peptide A on UVB irradiated mice was then tested (FIG. 5B).

Nox1 = molecular target: T2, Nox1 (Homo sapiens, UniProt Q86UR1); test: ROS level in shCtrl, shNox1 or shNox2-transduced keratinocytes; assay type: cell-based; conditions: shNox1-transduced keratinocytes, 24 h post-treatment, compared to control peptide C
T2 construct: endogenous in cells; host or cells: keratinocytes transduced with lentiviral shCtrl, shNox1 or shNox2
T2 sequence (Q86UR1 1-476): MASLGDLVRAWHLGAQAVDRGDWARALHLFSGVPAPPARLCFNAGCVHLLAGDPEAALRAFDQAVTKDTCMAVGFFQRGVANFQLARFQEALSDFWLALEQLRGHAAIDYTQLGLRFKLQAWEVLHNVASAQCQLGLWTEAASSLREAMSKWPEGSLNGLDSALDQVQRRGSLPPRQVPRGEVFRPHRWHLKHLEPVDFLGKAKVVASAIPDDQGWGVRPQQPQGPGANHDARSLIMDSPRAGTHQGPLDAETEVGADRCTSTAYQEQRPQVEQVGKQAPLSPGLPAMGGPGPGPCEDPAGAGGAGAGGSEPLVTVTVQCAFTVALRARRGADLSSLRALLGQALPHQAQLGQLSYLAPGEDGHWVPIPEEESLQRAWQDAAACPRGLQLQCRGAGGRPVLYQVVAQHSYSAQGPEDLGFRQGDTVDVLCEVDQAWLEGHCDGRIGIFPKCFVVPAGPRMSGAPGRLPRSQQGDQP
Experimental: (§5) FIGS. 3A, 3B and 3C: show inhibition of endogenous Nox1 and Nox2 protein expression using lentivirus-mediated expression of shRNA against Nox1 and Nox2. Keratinocytes were transduced with different shRNA (shNox1, shNox2 and the control shCtrl). Transduction efficacy was checked by western blotting analysis. […] Transduction efficacy was checked by western blotting analysis. Relative ROS level (3B) and Nox activity (3C) were measured 24 h post-treatment with Nox1 inhibitor peptide A compared to control peptide C. ROS level was normalized to counterpart peptide C-treated cells. NADPH oxidase activity was measured by relative luminescence unit (RLU) per μg of proteins. *P<0.05. […] In FIG. 3C NADPH oxidase activity was measured in shCtrl and shNox1-transduced cells treated with or without Nox1 inhibitor peptide A.
(§6) To examine the specificity of these peptides, the expression of endogenous Nox1 and Nox2 protein was inhibited using lentivirus-mediated expression of shRNA against Nox1 and Nox2. […] Further, NADPH oxidase activity was measured in shCtrl and shNox1-transduced cells treated with or without peptide A (FIG. 3C).

[4] = test system: UVB-induced Nox activation; test: UVB-induced Nox activation in skin of irradiated mice; assay type: in vivo, SKH-1 mice; conditions: topical 3 and 12 mg/kg, 10 min prior to irradiation (UVB 150 mJ/cm^2)
Experimental: as §3, §4

NADPH oxidase [5] = test: NADPH oxidase activity in shCtrl and shNox1-transduced keratinocytes; assay type: cell-based, human; conditions: peptide A-treated cells versus shNox1-transduced cells and shNox1-transduced cells treated with peptide A
Experimental: as §5, §6

XPC deficient mice = test: Premature skin aging in XPC deficient mice (progerin, OXPHOS, proteomics); assay type: in vivo
Experimental: FIGS. 11A and 11B: show the effect of NOX1 inhibitor peptide A (InhNOX) on progerin expression in skin biopsies of young XPC^+/+ and XPC^−/− mice. One month old mice were treated topically with 3 mg/kg (6 mice per group) Nox1 inhibitor peptide A (InhNOX) or control peptide (vehicle) three times per week for three months. (A) Total protein extracts of skin biopsies were assessed for progerin by Western blot analysis. β-actin was used as a loading control. (B) The protein bands corresponding to progerin was quantified and normalized with β-actin. The average density±SD from six mice in each group is presented as the relative value to the density in young wild type mice.
FIGS. 12A and 12B: show the effects of Nox1 inhibitor peptide A (InhNOX) on protein expression of OXPHOS complexes in skin biopsies of young XPC^+/+ and XPC^−/− mice. One month old mice were treated topically with 3 mg/kg (6 mice per group) Nox1 inhibitor peptide A (InhNOX) or control peptide (vehicle) three times per week for three months. (A) Expression of OXPHOS complexes were assessed by western blot analysis. β-actin was used as a loading control. (B) The bands corresponding to different OXPHOS complexes were quantified and normalized with β-actin. The average density±SD from six mice in each group is presented as the relative value to the density in young wild type mice.
To assess the anti-aging effects of Nox1 inhibitor peptide A (SEQ ID NO: 41) the accelerated aging in XPC deficient mice was first evaluated. To this end, the expression of progerin, a truncated version of lamin A protein involved in progeria syndrome, has been evaluated in 4 months old (young) and 1.5 year old (old) proficient and deficient XPC mice (XPC^+/+ and XPC^−/−, respectively) (FIGS. 9A and 9B).
To investigate the role of NADPH oxidase activity on premature aging in XPC deficient mice, one month old XPC^+/+ and XPC^−/− mice have been treated with NOX1 inhibitor peptide or vehicle three times per week for three months. The progerin expression (FIG. 11), OXPHOS protein expression (FIG. 12) and metabolism profile in murine epidermal cells have been then evaluated. […] To have a general idea on the effects of NOX1 peptide inhibitor on the XPC knockdown-induced metabolism alteration, proteomic approach has been used.

[6] = test system: UVB-induced squamous cell carcinomas (SCC); test: UVB-induced squamous cell carcinoma induction (photocarcinogenesis); assay type: in vivo, SKH-1 hairless mice; conditions: for tumors with a volume less than 5 mm^3: 3 mg/kg topical, week 29
Experimental: FIGS. 6A, 6B and 6C: show the photoprotective effects of peptide A on UVB-induced squamous cell carcinomas (SCC) induction using SKH-1 hairless mice. Mice were treated topically with 3 mg/kg of peptide A or control peptide, and irradiated with UVB 10 min later three times per week. The number (6A) and the size (6B) of tumors were assessed once a week during 29 weeks (6C). The tumor volume distribution was evaluated at week 29. Clearly there is a considerable reduction in numbers and size of UVB-induced tumors in SKH-1 mice administrated topically with peptide A.
To examine the photoprotective effects of peptide A, the effect of peptide A administration on UVB-induced squamous cell carcinomas (SCC) induction using SKH-1 hairless mice, a well-defined murine model for the study of photocarcinogenesis that develops skin tumors including benign papilloma and malignant SCC. The validity of this model is exemplified by the remarkable similarity between UVB-induced carcinogenesis in these mice and the UV carcinogenesis pathway in human skin. SKH-1 hairless mice have yield extremely valuable data on the dose, time-course and the action spectrum for skin tumorigenesis following chronic UV B irradiation. In this study, peptide A (3 mg/kg) was administrated three times per week and 10 minutes prior to each UV B exposure.

[7] = test system: human colon adenocarcinoma HT29 cell line; test: ROS level in HT29 cells, in which Nox1 is the only active Nox; assay type: cell-based; conditions: 24 h post-treatment
Experimental: as §1, §2

NADPH oxidase [8] = test: NADPH oxidase activity in keratinocytes treated with peptide A variants; assay type: cell-based; conditions: 10 μM, 24 h post-treatment, normalized to scramble treated cells
Experimental: Keratinocytes were treated with 10 μM of the indicated peptides: scramble control peptide P1 (SEQ ID NO: 57), peptide A with tat sequence (SEQ ID NO: 41) or without the tat sequence (SEQ ID NO:20); shorter peptides P7 (SEQ ID NO: 2) and P8 (SEQ ID NO: 56) (FIG. 8A). The NADPH oxidase activity was measured 24 h post-treatment (RLU/μg of proteins) and was normalized to the scramble treated cells (FIG. 8B).

[9] = XPC^−/− mice, 3 mg/kg topical three times per week for three months
[10] = 3 mg/kg topical three times per week, 10 minutes prior to each UVB exposure, 29 weeks

Substance: tat-P-P-T-V-P-T-R-P-S (RKKRRQRRRPPTVPTRPS; FUSION PEPTIDE) [peptide A, target SH3-NoxA1]
- reduction of NADPH oxidase activity in non-tumor bearing skin (NADPH oxidase [1]): 70%
- reduction of NADPH oxidase activity in tumors (NADPH oxidase [1]): 54%
- ROS level [2]: significant decrease
- duration of efficient inhibition of Nox activity in skin [3]: up to 3 days
- steady-state levels of ROS in shNox1-transduced cells (Nox1): no effect
- UVB-induced Nox activation [4]: efficiently blocked
- NADPH oxidase activity (NADPH oxidase [5]): Equally decreased
- XPC deficiency-induced premature aging (XPC deficient mice; XPC deficient mice): blocked
- XPC deficiency-induced metabolic alteration (proteomic approach) (XPC deficient mice; XPC deficient mice, three times per week for three months): eliminated the effects
- expression of OXPHOS complexes I, II and III (XPC deficient mice; [9]): abrogated the decrease
- protein expression of progerin in skin (XPC deficient mice; [9]): blocked the increase
- decrease in tumor number [6, 10]: 2.3 times
- decrease in tumor size [6, 10]: 2.9 times
- tumors with a volume less than 5 mm^3 [6]: 57%
- ROS level [7]: significant reduction

Substance: tat-I-Q-S-R-C-C-T-V-T (RKKRRQRRRIQSRCCTVT; FUSION PEPTIDE) [peptide B, target SH3-NoxA1]
- ROS level [2]: significant decrease
- ROS level [7]: significant reduction

Substance: PPTVPTRPS (HOMO SAPIENS) [peptide A without tat]
- inhibition of NADPH oxidase activity (NADPH oxidase [8]): as efficiently as peptide A

Substance: tat-C-L-R-I-T-R-Q-S-R [peptide C, reference compound]
- tumors with a volume less than 5 mm^3 [6]: 8%

Substance: PPTVPTR (HOMO SAPIENS) [P7, shorter peptide derived from peptide A]
- inhibition of NADPH oxidase activity (NADPH oxidase [8]): efficiently inhibit
- XPC deficiency-induced premature aging (XPC deficient mice; XPC deficient mice): blocked
- all experiments of Example 8 repeated, compared with peptide A (XPC deficient mice; XPC deficient mice): the same results have been obtained

Substance: P8: shorter peptide derived from peptide A, sequence not printed (PPTVPTRP; … PEPTIDIC FRAGMENT)
- inhibition of NADPH oxidase activity (NADPH oxidase [8]): efficiently inhibit
